molecular target: T1, IRAK-M (Homo sapiens, UniProt Q9Y616); experiment: IRAK-M binding inhibitory activity (KINOMEscan active site-dependent competitive assay); design: purchased Eurofins Discover X; conditions: concentration of the test compound 1 μM; first symbol of cell; read-out: IRAK-M binding inhibition activity % Ctrl
T1 sequence (Q9Y616 1-596): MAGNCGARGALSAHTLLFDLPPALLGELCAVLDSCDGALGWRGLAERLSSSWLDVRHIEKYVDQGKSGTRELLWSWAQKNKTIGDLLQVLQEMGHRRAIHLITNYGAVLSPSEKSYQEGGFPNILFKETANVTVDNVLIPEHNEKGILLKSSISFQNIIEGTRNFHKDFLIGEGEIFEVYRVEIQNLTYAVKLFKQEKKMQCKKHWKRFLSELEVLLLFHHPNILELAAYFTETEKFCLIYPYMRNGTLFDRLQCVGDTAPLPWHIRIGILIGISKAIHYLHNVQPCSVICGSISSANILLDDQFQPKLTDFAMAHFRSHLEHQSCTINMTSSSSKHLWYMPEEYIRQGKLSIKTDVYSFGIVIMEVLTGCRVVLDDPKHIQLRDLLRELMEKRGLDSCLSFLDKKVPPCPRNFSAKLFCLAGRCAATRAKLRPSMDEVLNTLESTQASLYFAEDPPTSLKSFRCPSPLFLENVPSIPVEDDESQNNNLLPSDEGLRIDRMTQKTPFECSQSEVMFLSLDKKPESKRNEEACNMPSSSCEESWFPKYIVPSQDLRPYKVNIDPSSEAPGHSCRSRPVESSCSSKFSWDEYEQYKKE
Procedure: IRAK-M binding inhibitory activity was evaluated using active site-dependent competitive assay KINOMEscan® provided by Eurofins Discover X (Goldstein, D. M. et al. High-throughput kinase profiling as a platform for drug discovery. Nat. Rev. Drug Discovery. 7, 391-397 (2008)). IRAK-M binding inhibitory activity of the test compound was evaluated. […] The “% Ctrl” is calculated by the following formula.
(test compound signal−positive control compound signal)/(negative control compound signal−positive control compound signal)×100
Negative control compound=DMSO (100 Ctrl)
Positive control compound=control compound (0%×Ctrl)

remaining binding at 1 µM [%] | SMILES
< 25 | c1cc(Nc2ncnc3ccsc23)ccn1 [Ref. example 21, N-(pyridin-4-yl)thieno[3,2-d]pyrimidin-4-amine]
50 to 75 | FC(F)(F)c1cc(Nc2ncnc3ccsc23)ccn1 [Ref. example 22, N-(2-(trifluoromethyl)pyridin-4-yl)thieno[3,2-d]pyrimidin-4-amine]
25 to 50 | COc1cc(Nc2ncnc3ccsc23)ccn1 [Ref. example 23, N-(2-methoxypyridin-4-yl)thieno[3,2-d]pyrimidin-4-amine]
50 to 75 | FC(F)(F)c1ncccc1Nc1ncnc2ccsc12 [Ref. example 24, N-(2-(trifluoromethyl)pyridin-3-yl)thieno[3,2-d]pyrimidin-4-amine]
25 to 50 | Cc1cc(Nc2ncnc3ccsc23)n(-c2ccccn2)n1 [Ref. example 25, N-(3-methyl-1-(pyridin-2-yl)-1H-pyrazol-5-yl)thieno[3,2-d]pyrimidin-4-amine]
≥ 75 | c1nc(Nc2ccc3[nH]cnc3c2)c2sccc2n1 [Ref. example 26, N-(1H-benzo[d]imidazol-5-yl)thieno[3,2-d]pyrimidin-4-amine]
50 to 75 | O=C1NC(=O)c2cc(Nc3ncnc4ccsc34)ccc21 [Ref. example 27, 5-(thieno[3,2-d]pyrimidin-4-ylamino)isoindoline-1,3-dione]
50 to 75 | c1nc(Nc2ccc3cn[nH]c3c2)c2sccc2n1 [Ref. example 28, N-(1H-indazol-6-yl)thieno[3,2-d]pyrimidin-4-amine]
25 to 50 | O=C1OCc2cc(Nc3ncnc4ccsc34)ccc21 [Ref. example 29, 5-(thieno[3,2-d]pyrimidin-4-ylamino)isobenzofuran-1(3H)-one]
≥ 75 | COC(=O)c1cc2ncnc(NCC3CC3)c2s1 [Ref. example 30, methyl 4-((cyclopropylmethyl)amino)thieno[3,2-d]pyrimidine-6-carboxylate]
≥ 75 | CN1CCC(Oc2ncnc3cc(-c4cnn(C)c4)sc23)CC1 [Ref. example 31, 6-(1-methyl-1H-pyrazol-4-yl)-4-((1-methylpiperidin-4-yl)oxy)thieno[3,2-d]pyrimidine]
≥ 75 | C#Cc1cc2ncnc(OC3CCN(C)CC3)c2s1 [Ref. example 32, 6-ethynyl-4-((1-methylpiperidin-4-yl)oxy)thieno[3,2-d]pyrimidine]
≥ 75 | NC(=O)c1ccc(Nc2nc(Cl)nc3ccsc23)cc1 [Ref. example 33, 4-((2-chlorothieno[3,2-d]pyrimidin-4-yl)amino)benzamide]
≥ 75 | Ic1cc2ncnc(OC3CCOCC3)c2s1 [Ref. example 34, 6-iodo-4-((tetrahydro-2H-pyran-4-yl)oxy)thieno[3,2-d]pyrimidine]
≥ 75 | Ic1cc2ncnc(OC3CCSCC3)c2s1 [Ref. example 35, 6-iodo-4-((tetrahydro-2H-thiopyran-4-yl)oxy)thieno[3,2-d]pyrimidine]
≥ 75 | CN1CCC(Oc2ncnc3cc(I)sc23)CC1 [Ref. example 36, 6-iodo-4-((1-methylpiperidin-4-yl)oxy)thieno[3,2-d]pyrimidine]
≥ 75 | O=S1(=O)CCC(Oc2ncnc3cc(I)sc23)CC1 [Ref. example 37, 4-((6-iodothieno[3,2-d]pyrimidin-4-yl)oxy)tetrahydro-2H-thiopyran 1,1-dioxide]
25 to 50 | O=S(=O)(c1c(F)cccc1F)N1CCC(Oc2ncnc3ccsc23)CC1 [Ref. example 38, 4-((1-((2,6-difluorophenyl)sulfonyl)piperidin-4-yl)oxy)thieno[3,2-d]pyrimidine]
50 to 75 | CS(=O)(=O)N1CCC(Oc2ncnc3ccsc23)CC1 [Ref. example 39, 4-((1-(methylsulfonyl)piperidin-4-yl)oxy)thieno[3,2-d]pyrimidine]
25 to 50 | COCCS(=O)(=O)N1CCC(Oc2ncnc3ccsc23)CC1 [Ref. example 40, 4-((1-((2-methoxyethyl)sulfonyl)piperidin-4-yl)oxy)thieno[3,2-d]pyrimidine]

remaining binding at 1 µM [%] | SMILES
25 to 50 | O=S(=O)(Cc1ccccc1)N1CCC(Oc2ncnc3ccsc23)CC1 [Ref. example 41, 4-((1-(benzylsulfonyl)piperidin-4-yl)oxy)thieno[3,2-d]pyrimidine]
50 to 75 | CC(C)(C)OC(=O)N1CCC(CS(=O)(=O)N2CCC(Oc3ncnc4ccsc34)CC2)CC1 [Ref. example 42, tert-butyl 4-(((4-(thieno[3,2-d]pyrimidin-4-yloxy)piperidin-1-yl)sulfonyl)methyl)piperidine-1-carboxylate]
50 to 75 | CCOC(=O)CCS(=O)(=O)N1CCC(Oc2ncnc3ccsc23)CC1 [Ref. example 43, ethyl 3-((4-(thieno[3,2-d]pyrimidin-4-yloxy)piperidin-1-yl)sulfonyl)propanoate]
25 to 50 | O=S(=O)(C1CC1)N1CCC(Oc2ncnc3ccsc23)CC1 [Ref. example 44, 4-((1-(cyclopropylsulfonyl)piperidin-4-yl)oxy)thieno[3,2-d]pyrimidine]
< 25 | O=S(=O)(c1ccccc1Cl)N1CCC(Oc2ncnc3ccsc23)CC1 [Ref. example 45, 4-((1-((2-chlorophenyl)sulfonyl)piperidin-4-yl)oxy)thieno[3,2-d]pyrimidine]
< 25 | COc1ccccc1S(=O)(=O)N1CCC(Oc2ncnc3ccsc23)CC1 [Ref. example 46, 4-((1-((2-methoxyphenyl)sulfonyl)piperidin-4-yl)oxy)thieno[3,2-d]pyrimidine]
< 25 | Cc1ccccc1S(=O)(=O)N1CCC(Oc2ncnc3ccsc23)CC1 [Ref. example 47, 4-((1-(o-tolylsulfonyl)piperidin-4-yl)oxy)thieno[3,2-d]pyrimidine]
< 25 | O=S(=O)(c1ccccc1Oc1ccc(F)cc1)N1CCC(Oc2ncnc3ccsc23)CC1 [Ref. example 48, 4-((1-((2-(4-fluorophenoxy)phenyl)sulfonyl)piperidin-4-yl)oxy)thieno[3,2-d]pyrimidine]
25 to 50 | O=S(=O)(c1ccccc1F)N1CCC(Oc2ncnc3ccsc23)CC1 [Ref. example 49, 4-((1-((2-fluorophenyl)sulfonyl)piperidin-4-yl)oxy)thieno[3,2-d]pyrimidine]
25 to 50 | O=S(=O)(c1ccccc1OC(F)(F)F)N1CCC(Oc2ncnc3ccsc23)CC1 [Ref. example 50, 4-((1-((2-(trifluoromethoxy)phenyl)sulfonyl)piperidin-4-yl)oxy)thieno[3,2-d]pyrimidine]
25 to 50 | COc1ccc(S(=O)(=O)N2CCC(Oc3ncnc4ccsc34)CC2)cc1 [Ref. example 51, 4-((1-((4-methoxyphenyl)sulfonyl)piperidin-4-yl)oxy)thieno[3,2-d]pyrimidine]
< 25 | O=S(=O)(c1ccc(Cl)cc1)N1CCC(Oc2ncnc3ccsc23)CC1 [Ref. example 52, 4-((1-((4-chlorophenyl)sulfonyl)piperidin-4-yl)oxy)thieno[3,2-d]pyrimidine]
25 to 50 | O=S(=O)(c1ccc(F)cc1)N1CCC(Oc2ncnc3ccsc23)CC1 [Ref. example 53, 4-((1-((4-fluorophenyl)sulfonyl)piperidin-4-yl)oxy)thieno[3,2-d]pyrimidine]
25 to 50 | COc1cccc(S(=O)(=O)N2CCC(Oc3ncnc4ccsc34)CC2)c1 [Ref. example 54, 4-((1-((3-methoxyphenyl)sulfonyl)piperidin-4-yl)oxy)thieno[3,2-d]pyrimidine]
25 to 50 | Cc1ccc(S(=O)(=O)N2CCC(Oc3ncnc4ccsc34)CC2)cc1 [Ref. example 55, 4-((1-(4-methylbenzenesulfonyl)piperidin-4-yl)oxy)thieno[3,2-d]pyrimidine]
25 to 50 | O=S(=O)(c1cccc(F)c1)N1CCC(Oc2ncnc3ccsc23)CC1 [Ref. example 56, 4-((1-((3-fluorophenyl)sulfonyl)piperidin-4-yl)oxy)thieno[3,2-d]pyrimidine]
25 to 50 | O=S(=O)(c1cccc(Cl)c1)N1CCC(Oc2ncnc3ccsc23)CC1 [Ref. example 57, 4-((1-((3-chlorophenyl)sulfonyl)piperidin-4-yl)oxy)thieno[3,2-d]pyrimidine]
25 to 50 | O=S(=O)(c1cccnc1)N1CCC(Oc2ncnc3ccsc23)CC1 [Ref. example 58, 4-((1-(pyridin-3-ylsulfonyl)piperidin-4-yl)oxy)thieno[3,2-d]pyrimidine]
25 to 50 | O=S(=O)(c1cnn(Cc2ccccc2)c1)N1CCC(Oc2ncnc3ccsc23)CC1 [Ref. example 59, 4-((1-((1-benzyl-1H-pyrazol-4-yl)sulfonyl)piperidin-4-yl)oxy)thieno[3,2-d]pyrimidine]

From patent US20220402935A1, “HETEROCYCLIC COMPOUND” (FIMECS, INC., priority 2019, published 2022)
